Assay results from patent US20230009626A1 (ICHNOS SCIENCES S.A., priority 2018, published 2023).

Biological target: HPK1 (MAP4K1) (Homo sapiens, UniProt Q92918)
Assay: FRET Assay for HPK1 (MAP4K1): one step binding assay, displacement of labeled tracer
Settings: for inhibition at 1 µM: 1 μM compound; for inhibition at 1 µM / inhibition at 10 µM: FRET ratio 665/620, percent of control; for inhibition at 10 µM: 10 μM compound; for IC50: dose response curve, nonlinear regression
Procedure, shortened: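 TR-FRET tracer-displacement binding assay. GST-tagged HPK1 (10 nM) and Eu-anti-GST antibody (4 nM) were pre-incubated with compound on ice for 15 min in 50 mM HEPES pH 7.5, 10 mM MgCl2, 1 mM EGTA, 0.01% Brij-35 (3% DMSO final). Kinase Tracer 222 (20 nM) was then added for 1 h at room temperature. IC50 came from nonlinear regression of percent of control; percent inhibition was also given at 1.0 and 10.0 μM.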

Sequence of HPK1 (MAP4K1) (Q92918 whole entry): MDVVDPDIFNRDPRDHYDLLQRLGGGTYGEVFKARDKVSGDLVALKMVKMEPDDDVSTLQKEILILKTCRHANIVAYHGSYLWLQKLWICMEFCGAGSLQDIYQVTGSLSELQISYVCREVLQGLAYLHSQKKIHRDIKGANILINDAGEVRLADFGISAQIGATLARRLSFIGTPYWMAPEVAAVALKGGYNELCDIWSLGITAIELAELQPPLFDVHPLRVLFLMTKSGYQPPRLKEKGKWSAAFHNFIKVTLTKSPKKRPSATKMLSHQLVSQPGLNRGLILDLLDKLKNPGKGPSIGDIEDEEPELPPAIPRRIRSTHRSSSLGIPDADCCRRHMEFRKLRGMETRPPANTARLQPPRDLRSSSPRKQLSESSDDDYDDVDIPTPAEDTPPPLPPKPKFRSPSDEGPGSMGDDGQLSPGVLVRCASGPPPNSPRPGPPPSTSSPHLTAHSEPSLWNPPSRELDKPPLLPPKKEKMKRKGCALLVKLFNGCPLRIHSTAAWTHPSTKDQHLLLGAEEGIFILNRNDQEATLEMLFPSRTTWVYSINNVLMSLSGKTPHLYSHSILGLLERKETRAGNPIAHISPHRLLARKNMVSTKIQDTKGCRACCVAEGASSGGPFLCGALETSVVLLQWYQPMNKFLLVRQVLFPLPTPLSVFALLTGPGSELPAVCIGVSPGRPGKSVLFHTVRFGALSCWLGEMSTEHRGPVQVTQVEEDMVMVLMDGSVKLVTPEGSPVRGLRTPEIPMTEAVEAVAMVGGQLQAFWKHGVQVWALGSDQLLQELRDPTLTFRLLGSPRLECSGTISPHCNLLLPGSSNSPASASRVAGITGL

Row | inhibition at 1 µM | inhibition at 10 µM | IC50 | Compound
1 | 76.2% | 92.9% | 50 to 100 nM | C/C(Nc1ccn(C)n1)=C1/C(=O)Nc2cnc(-c3cccnc3C)cc21 [Example 162, (Z)-3-(1-((1-Methyl-1H-pyrazol-3-yl)amino)ethylidene)-5-(2-methylpyridin-3-yl)-1H-pyrrolo[2,3-c]pyridin-2(3H)-one]
2 | 77.3% | 81.5% | < 50 nM | C/C(Nc1ncn(C)n1)=C1/C(=O)Nc2cnc(-c3cnccc3C)cc21 [Example 163, (Z)-3-(1-((1-Methyl-1H-1,2,4-triazol-3-yl)amino)ethylidene)-5-(4-methylpyridin-3-yl)-1H-pyrrolo[2,3-c]pyridin-2(3H)-one]
3 | 60.9% | 75.2% | 50 to 100 nM | C/C(Nc1cnn(C)c1)=C1/C(=O)Nc2cnc(-c3c(C)cccc3F)cc21 [Example 164, (Z)-5-(2-Fluoro-6-methylphenyl)-3-(1-((1-methyl-1H-pyrazol-4-yl)amino)ethylidene)-1H-pyrrolo[2,3-c]pyridin-2(3H)-one]
4 | 79.3% | 71.8% | < 50 nM | C/C(Nc1cnn(CC[C@@H](C)O)c1)=C1/C(=O)Nc2cnc(-c3cnccc3C)cc21 [Example 165, (R,Z)-3-(1-((1-(3-Hydroxybutyl)-1H-pyrazol-4-yl)amino)ethylidene)-5-(4-methylpyridin-3-yl)-1H-pyrrolo[2,3-c]pyridin-2(3H)-one]
5 | 62.9% | 75.7% | < 50 nM | C/C(Nc1cnn(CCC(C)(C)O)c1)=C1/C(=O)Nc2cnc(-c3cnccc3C)cc21 [Example 166, (Z)-3-(1-((1-(3-Hydroxy-3-methylbutyl)-1H-pyrazol-4-yl)amino)ethylidene)-5-(4-methylpyridin-3-yl)-1H-pyrrolo[2,3-c]pyridin-2(3H)-one]
6 | 69.2% | 67.5% | < 50 nM | C/C(Nc1cnn([C@@H](C)C#N)c1)=C1/C(=O)Nc2cnc(-c3cnccc3C)cc21 [Example 167, (S,Z)-2-(4-((1-(5-(4-Methylpyridin-3-yl)-2-oxo-1H-pyrrolo[2,3-c]pyridin-3(2H)-ylidene)ethyl)amino)-1H-pyrazol-1-yl)propanenitrile]
7 | 67.6% | 76.7% | < 50 nM | C/C(Nc1ccn(CC2(O)CC2)n1)=C1/C(=O)Nc2cnc(-c3cnccc3C)cc21 [Example 168, (Z)-3-(1-((1-((1-Hydroxycyclopropyl)methyl)-1H-pyrazol-3-yl)amino)ethylidene)-5-(4-methylpyridin-3-yl)-1H-pyrrolo[2,3-c]pyridin-2(3H)-one]
8 | 71.4% | 84.3% | < 50 nM | C/C(Nc1ccn(CC[C@@H](C)O)n1)=C1/C(=O)Nc2cnc(-c3cnccc3C)cc21 [Example 169, (R,Z)-3-(1-((1-(3-Hydroxybutyl)-1H-pyrazol-3-yl)amino)ethylidene)-5-(4-methylpyridin-3-yl)-1H-pyrrolo[2,3-c]pyridin-2(3H)-one]
9 | 70.1% | 70.3% | < 50 nM | C/C(Nc1cc(C)n(CC(F)F)n1)=C1/C(=O)Nc2cnc(-c3cnccc3C)cc21 [Example 170, (Z)-3-(1-((1-(2,2-Difluoroethyl)-5-methyl-1H-pyrazol-3-yl)amino)ethylidene)-5-(4-methylpyridin-3-yl)-1H-pyrrolo[2,3-c]pyridin-2(3H)-one]
10 | 63.4% | 77% | 50 to 100 nM | COc1cccc(F)c1-c1cc2c(cn1)NC(=O)/C2=C(/C)Nc1cnn([C@H](C)C#N)c1 [Example 171, (R,Z)-2-(4-((1-(5-(2-Fluoro-6-methoxyphenyl)-2-oxo-1H-pyrrolo[2,3-c]pyridin-3(2H)-ylidene)ethyl)amino)-1H-pyrazol-1-yl)propanenitrile]
11 | 79.2% | 80.5% | < 50 nM | COc1cccc(F)c1-c1cc2c(cn1)NC(=O)/C2=C(/C)Nc1cnn([C@@H](C)C#N)c1 [Example 172, (S,Z)-2-(4-((1-(5-(2-Fluoro-6-methoxyphenyl)-2-oxo-1H-pyrrolo[2,3-c]pyridin-3(2H)-ylidene)ethyl)amino)-1H-pyrazol-1-yl)propanenitrile]
12 | 66.8% | 77.4% | < 50 nM | COc1cccc(F)c1-c1cc2c(cn1)NC(=O)/C2=C(/C)Nc1cnn(C[C@H](C)O)c1 [Example 173, (S,Z)-5-(2-Fluoro-6-methoxyphenyl)-3-(1-((1-(2-hydroxypropyl)-1H-pyrazol-4-yl)amino)ethylidene)-1H-pyrrolo[2,3-c]pyridin-2(3H)-one]
13 | 55.1% | 64.8% | < 50 nM | C/C(Nc1cnn(CC2(O)CC2)c1)=C1/C(=O)Nc2cnc(-c3cnccc3C)cc21 [Example 174, (Z)-3-(1-((1-((1-Hydroxycyclopropyl)methyl)-1H-pyrazol-4-yl)amino)ethylidene)-5-(4-methylpyridin-3-yl)-1H-pyrrolo[2,3-c]pyridin-2(3H)-one]
14 | 72.6% |  | < 50 nM | C/C(Nc1nn(C)c2ccccc12)=C1/C(=O)Nc2cnc(-c3cnccc3C)cc21 [Example 175, (Z)-3-(1-((1-Methyl-1H-indazol-3-yl)amino)ethylidene)-5-(4-methylpyridin-3-yl)-1H-pyrrolo[2,3-c]pyridin-2(3H)-one]
15 | 75.4% | 62.3% | < 50 nM | C/C(Nc1cnn(CC[C@H](C)O)c1)=C1/C(=O)Nc2cnc(-c3cnccc3C)cc21 [Example 176, (S,Z)-3-(1-((1-(3-Hydroxybutyl)-1H-pyrazol-4-yl)amino)ethylidene)-5-(4-methylpyridin-3-yl)-1H-pyrrolo[2,3-c]pyridin-2(3H)-one]
16 | 69.4% | 66.6% | < 50 nM | C/C(Nc1ccc(OC2CCN(C(=O)C3CC3)CC2)nc1)=C1/C(=O)Nc2cnc(-c3cnccc3C)cc21 [Example 177, (Z)-3-(1-((6-((1-(Cyclopropanecarbonyl)piperidin-4-yl)oxy)pyridin-3-yl)amino)ethylidene)-5-(4-methylpyridin-3-yl)-1H-pyrrolo[2,3-c]pyridin-2(3H)-one]
17 | 68% | 77.8% | < 50 nM | C/C(Nc1ncc(C)s1)=C1/C(=O)Nc2cnc(-c3cnccc3C)cc21 [Example 178, (Z)-5-(4-Methylpyridin-3-yl)-3-(1-((5-methylthiazol-2-yl)amino)ethylidene)-1H-pyrrolo[2,3-c]pyridin-2(3H)-one]
18 | 66.9% | 77.6% | < 50 nM | C/C(Nc1cc(C)[nH]n1)=C1/C(=O)Nc2cnc(-c3cnccc3C)cc21 [Example 179, (Z)-3-(1-((5-Methyl-1H-pyrazol-3-yl)amino)ethylidene)-5-(4-methylpyridin-3-yl)-1H-pyrrolo[2,3-c]pyridin-2(3H)-one]
19 | 73% | 76.2% | < 50 nM | CCS(=O)(=O)n1nc(N/C(C)=C2\C(=O)Nc3cnc(-c4cnccc4C)cc32)cc1C [Example 180, (Z)-3-(1-((1-(Ethylsulfonyl)-5-methyl-1H-pyrazol-3-yl)amino)ethylidene)-5-(4-methylpyridin-3-yl)-1H-pyrrolo[2,3-c]pyridin-2(3H)-one]
20 | 76.8% | 80.8% | < 50 nM | C/C(Nc1cc(C)n(CC(C)(C)O)n1)=C1/C(=O)Nc2cnc(-c3cnccc3C)cc21 [Example 181, (Z)-3-(1-((1-(2-Hydroxy-2-methylpropyl)-5-methyl-1H-pyrazol-3-yl)amino)ethylidene)-5-(4-methylpyridin-3-yl)-1H-pyrrolo[2,3-c]pyridin-2(3H)-one]
21 | 78.8% | 73% | < 50 nM | CCn1nc(N/C(C)=C2\C(=O)Nc3cnc(-c4cnccc4C)cc32)cc1C [Example 182, (Z)-3-(1-((1-Ethyl-5-methyl-1H-pyrazol-3-yl)amino)ethylidene)-5-(4-methylpyridin-3-yl)-1H-pyrrolo[2,3-c]pyridin-2(3H)-one]
22 | 72.5% | 79.5% | < 50 nM | C/C(Nc1cc(C)n(CCC(C)(C)O)n1)=C1/C(=O)Nc2cnc(-c3cnccc3C)cc21 [Example 183, (Z)-3-(1-((1-(3-Hydroxy-3-methylbutyl)-5-methyl-1H-pyrazol-3-yl)amino)ethylidene)-5-(4-methylpyridin-3-yl)-1H-pyrrolo[2,3-c]pyridin-2(3H)-one]
23 | 70.3% | 75.2% | < 50 nM | C/C(Nc1cc(C)n(C[C@H](C)O)n1)=C1/C(=O)Nc2cnc(-c3cnccc3C)cc21 [Example 184, (S,Z)-3-(1-((1-(2-Hydroxypropyl)-5-methyl-1H-pyrazol-3-yl)amino)ethylidene)-5-(4-methylpyridin-3-yl)-1H-pyrrolo[2,3-c]pyridin-2(3H)-one]
24 | 73.2% | 73.9% | < 50 nM | C/C(Nc1cc(C)n(C(F)F)n1)=C1/C(=O)Nc2cnc(-c3cnccc3C)cc21 [Example 185, (Z)-3-(1-((1-(Difluoromethyl)-5-methyl-1H-pyrazol-3-yl)amino)ethylidene)-5-(4-methylpyridin-3-yl)-1H-pyrrolo[2,3-c]pyridin-2(3H)-one]
25 | 70.9% | 72.2% | < 50 nM | C/C(Nc1cc(C)n(CC(C)C)n1)=C1/C(=O)Nc2cnc(-c3cnccc3C)cc21 [Example 186, (Z)-3-(1-((1-Isobutyl-5-methyl-1H-pyrazol-3-yl)amino)ethylidene)-5-(4-methylpyridin-3-yl)-1H-pyrrolo[2,3-c]pyridin-2(3H)-one]
